# Measured values: patent publication US9149038B2, “4-amino-6-(heterocyclic)picolinates and 6-amino-2-(heterocyclic)pyrimidine-4-carboxylates and their use as herbicides” (Dow AgroSciences LLC, priority 2013, dated 2015)
# Read-outs that look alike come from different tables or passages of the source.
# Experiments:
# [1] = tested on: Key Broadleaf Weed and Crop Species; experiment: Post-Emergent Test II: postemergent herbicidal activity, visual rating after 14 d (Table 7); format: in vivo; settings: post-emergence, 336 h; for pest or weed control at 35 g/ha: 35 g ai/ha; for pest or weed control at 70 g/ha: 70 g ai/ha; for pest or weed control at 140 g/ha: 140 g ai/ha
# Outline: (§1)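 Post-emergence foliar spray, 187 L/ha, first/second true leaf stage plants in potting mix (pH 6.0-6.8). Rates: top rate and 2-fold serial dilutions to 1/16×. Solvent-blank controls. Readout: visual % kill at 14 d.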
# [2] = tested on: Key Grass and Sedge Weeds as well as Grass Crops; experiment: Post-Emergent Test II: postemergent herbicidal activity, visual rating after 14 d (Table 8); format: in vivo; settings: post-emergence, 336 h; for pest or weed control at 35 g/ha: 35 g ai/ha; for pest or weed control at 70 g/ha: 70 g ai/ha; for pest or weed control at 140 g/ha: 140 g ai/ha
# Outline: as §1
# [3] = lambsquarters (Chenopodium album), read-out: Visual Growth Reduction (%) 14 Days After Application CHEAL
# [4] = oilseed rape, canola (Brassica napus), read-out: Visual Growth Reduction (%) 14 Days After Application BRSNN
# [5] = redroot pigweed (Amaranthus retroflexus), read-out: Visual Growth Reduction (%) 14 Days After Application AMARE
# [6] = sunflower (Helianthus annuus), read-out: Visual Growth Reduction (%) 14 Days After Application HELAN
# [7] = velvetleaf (Abutilon theophrasti), read-out: Visual Growth Reduction (%) 14 Days After Application ABUTH
# [8] = wild poinsettia (Euphorbia heterophylla), read-out: Visual Growth Reduction (%) 14 Days After Application EPHHL
# [9] = barnyardgrass (Echinochloa crus-galli), read-out: Visual Growth Reduction (%) 14 Days After Application ECHCG
# [10] = giant foxtail (Setaria faberi), read-out: Visual Growth Reduction (%) 14 Days After Application SETFA
# [11] = maize, corn (Zea mays), read-out: Visual Growth Reduction (%) 14 Days After Application ZEAMX
# [12] = rice (Oryza sativa), read-out: Visual Growth Reduction (%) 14 Days After Application ORYSA
# [13] = wheat, spring (Triticum aestivum), read-out: Visual Growth Reduction (%) 14 Days After Application TRZAS
# [14] = yellow nutsedge (Cyperus esculentus), read-out: Visual Growth Reduction (%) 14 Days After Application CYPES
Structure (SMILES),"pest or weed control at 35 g/ha [1, 3]","pest or weed control at 70 g/ha [1, 3]","pest or weed control at 140 g/ha [1, 3]","pest or weed control at 35 g/ha [1, 4]","pest or weed control at 70 g/ha [1, 4]","pest or weed control at 140 g/ha [1, 4]","pest or weed control at 35 g/ha [1, 5]","pest or weed control at 70 g/ha [1, 5]","pest or weed control at 140 g/ha [1, 5]","pest or weed control at 35 g/ha [1, 6]","pest or weed control at 70 g/ha [1, 6]","pest or weed control at 140 g/ha [1, 6]","pest or weed control at 35 g/ha [1, 7]","pest or weed control at 70 g/ha [1, 7]","pest or weed control at 140 g/ha [1, 7]","pest or weed control at 35 g/ha [1, 8]","pest or weed control at 70 g/ha [1, 8]","pest or weed control at 140 g/ha [1, 8]","pest or weed control at 35 g/ha [2, 9]","pest or weed control at 70 g/ha [2, 9]",other results
COC(=O)c1nc(-c2cc3c(cc2F)OCO3)nc(N)c1OC [Compound 69],0 to 29%,0 to 29%,0 to 29%,75 to 84%,75 to 84%,95 to 100%,0 to 29%,0 to 29%,0 to 29%,0 to 29%,45 to 59%,60 to 74%,0 to 29%,0 to 29%,0 to 29%,0 to 29%,60 to 74%,75 to 84%,0 to 29%,0 to 29%,"pest or weed control at 140 g/ha [2, 9]: 0 to 29%; pest or weed control at 35 g/ha [2, 10]: 0 to 29%; pest or weed control at 70 g/ha [2, 10]: 0 to 29%; pest or weed control at 140 g/ha [2, 10]: 0 to 29%; pest or weed control at 35 g/ha [2, 11]: 0 to 29%; pest or weed control at 70 g/ha [2, 11]: 0 to 29%; pest or weed control at 140 g/ha [2, 11]: 0 to 29%; pest or weed control at 35 g/ha [2, 12]: 0 to 29%; pest or weed control at 70 g/ha [2, 12]: 0 to 29%; pest or weed control at 140 g/ha [2, 12]: 0 to 29%; pest or weed control at 35 g/ha [2, 13]: 0 to 29%; pest or weed control at 70 g/ha [2, 13]: 0 to 29%; pest or weed control at 140 g/ha [2, 13]: 0 to 29%; pest or weed control at 35 g/ha [2, 14]: 0 to 29%; pest or weed control at 70 g/ha [2, 14]: 0 to 29%; pest or weed control at 140 g/ha [2, 14]: 0 to 29%"
COC(=O)c1nc(-c2ccc3c(c2)OC(F)(F)O3)c(F)c(N)c1OC [Compound 24],0 to 29%,0 to 29%,0 to 29%,0 to 29%,0 to 29%,0 to 29%,0 to 29%,0 to 29%,0 to 29%,0 to 29%,0 to 29%,0 to 29%,0 to 29%,0 to 29%,0 to 29%,75 to 84%,95 to 100%,95 to 100%,60 to 74%,85 to 94%,"pest or weed control at 140 g/ha [2, 9]: 95 to 100%; pest or weed control at 35 g/ha [2, 10]: 0 to 29%; pest or weed control at 70 g/ha [2, 10]: 0 to 29%; pest or weed control at 140 g/ha [2, 10]: 0 to 29%; pest or weed control at 35 g/ha [2, 11]: 60 to 74%; pest or weed control at 70 g/ha [2, 11]: 75 to 84%; pest or weed control at 140 g/ha [2, 11]: 75 to 84%; pest or weed control at 35 g/ha [2, 12]: 0 to 29%; pest or weed control at 70 g/ha [2, 12]: 0 to 29%; pest or weed control at 140 g/ha [2, 12]: 0 to 29%; pest or weed control at 35 g/ha [2, 13]: 0 to 29%; pest or weed control at 70 g/ha [2, 13]: 0 to 29%; pest or weed control at 140 g/ha [2, 13]: 30 to 44%; pest or weed control at 35 g/ha [2, 14]: 95 to 100%; pest or weed control at 70 g/ha [2, 14]: 95 to 100%; pest or weed control at 140 g/ha [2, 14]: 95 to 100%"
COC(=O)c1nc(-c2ccc3c(c2F)OC(F)(F)O3)c(F)c(N)c1Cl [Compound 10],85 to 94%,85 to 94%,95 to 100%,75 to 84%,85 to 94%,85 to 94%,85 to 94%,95 to 100%,95 to 100%,85 to 94%,85 to 94%,85 to 94%,85 to 94%,95 to 100%,95 to 100%,95 to 100%,95 to 100%,95 to 100%,95 to 100%,95 to 100%,"pest or weed control at 140 g/ha [2, 9]: 95 to 100%; pest or weed control at 35 g/ha [2, 10]: 75 to 84%; pest or weed control at 70 g/ha [2, 10]: 95 to 100%; pest or weed control at 140 g/ha [2, 10]: 95 to 100%; pest or weed control at 35 g/ha [2, 11]: 60 to 74%; pest or weed control at 70 g/ha [2, 11]: 75 to 84%; pest or weed control at 140 g/ha [2, 11]: 75 to 84%; pest or weed control at 35 g/ha [2, 12]: 0 to 29%; pest or weed control at 70 g/ha [2, 12]: 0 to 29%; pest or weed control at 140 g/ha [2, 12]: 0 to 29%; pest or weed control at 35 g/ha [2, 13]: 45 to 59%; pest or weed control at 70 g/ha [2, 13]: 60 to 74%; pest or weed control at 140 g/ha [2, 13]: 60 to 74%; pest or weed control at 35 g/ha [2, 14]: 95 to 100%; pest or weed control at 70 g/ha [2, 14]: 95 to 100%; pest or weed control at 140 g/ha [2, 14]: 95 to 100%"
COc1c(N)nc(-c2ccc3c(c2F)OC(F)(F)O3)nc1C(=O)O [Compound 66],45 to 59%,85 to 94%,95 to 100%,60 to 74%,75 to 84%,85 to 94%,95 to 100%,95 to 100%,95 to 100%,75 to 84%,85 to 94%,95 to 100%,75 to 84%,75 to 84%,85 to 94%,95 to 100%,95 to 100%,95 to 100%,95 to 100%,95 to 100%,"pest or weed control at 140 g/ha [2, 9]: 95 to 100%; pest or weed control at 35 g/ha [2, 10]: 75 to 84%; pest or weed control at 70 g/ha [2, 10]: 75 to 84%; pest or weed control at 140 g/ha [2, 10]: 85 to 94%; pest or weed control at 35 g/ha [2, 11]: 60 to 74%; pest or weed control at 70 g/ha [2, 11]: 60 to 74%; pest or weed control at 140 g/ha [2, 11]: 75 to 84%; pest or weed control at 35 g/ha [2, 12]: 30 to 44%; pest or weed control at 70 g/ha [2, 12]: 30 to 44%; pest or weed control at 140 g/ha [2, 12]: 30 to 44%; pest or weed control at 35 g/ha [2, 13]: 45 to 59%; pest or weed control at 70 g/ha [2, 13]: 60 to 74%; pest or weed control at 140 g/ha [2, 13]: 60 to 74%; pest or weed control at 35 g/ha [2, 14]: 0 to 29%; pest or weed control at 70 g/ha [2, 14]: 95 to 100%; pest or weed control at 140 g/ha [2, 14]: 95 to 100%"
